Test results taken from patent US7858634B2, “Amorphous 3-pyridil-1-hydroxyethyliden-1,1-biphosphonic acid monosodium salt and process for the preparation thereof” (Chemi SpA, priority 2004, dated 2010).

Assay: comparative dissolution test in deionized water
Details: for time to complete dissolution: 200 mg suspended in 25 ml deionized water, 20° C., magnetic stirring at 25 rpm, monosodium salt

SMILES	time to complete dissolution	water solubility with respect to crystalline forms (amorphous form, preferably lyophilized, vs commercially available or otherwise described crystalline forms)
O=P([O-])(O)C(O)(Cc1cccnc1)P(=O)(O)O.[Na+] [amorphous sodium risedronate, 3-pyridil-1-hydroxyethyliden-1,1-biphosphonic acid monosodium salt]	≤ 2 ′	improved water solubility
O=P([O-])(O)C(O)(Cc1cccnc1)P(=O)(O)O.[Na+] [sodium risedronate hemipentahydrate, 3-pyridil-1-hydroxyethyliden-1,1-biphosphonic acid monosodium salt]	> 30 ′	
